Reference: patent US20130012546A1 (priority 2009, published 2013)

Experiment: logP(HCOOH) by HPLC
Assay type: physicochemical
Settings: HPLC on reversed phase columns, pH 2.7, 0.1% formic acid in water / acetonitrile, linear gradient 10% to 95% acetonitrile; EEC directive 79/831 Annex V.A8

SMILES	log p
CON=C(C(=O)Nc1nc(CON=C(c2ccccc2)n2nnnc2C)cs1)c1ccc(Br)cc1 [Example 29]	4.41
CON=C(C(=O)Nc1nc(CON=C(c2ccccc2)n2nnnc2C)cs1)c1cccc(Cl)c1Cl [Example 30]	4.32
CC(=NOCC(=O)Nc1cccc(CON=C(c2ccccc2)c2nnnn2C)n1)C(C)(C)C [Example 31]	4.23
C#CCOCC(=O)Nc1nc(CO/N=C(/c2ccccc2)n2nnnc2C)cs1 [Example 49]	2.69
Cn1nnnc1/C(=N\OCc1cccc(NC(=O)OC2CC3CCC2(C)C3(C)C)n1)c1ccccc1 (stereo not drawn) [Example 55]	5.32
Cn1nnnc1/C(=N\OCc1cccc(NC(=O)OCC2CCCCC2)n1)c1ccccc1 [Example 57]	4.72
Cn1nnnc1/C(=N\OCc1cccc(NC(=O)OCC2CC2)n1)c1ccccc1 [Example 58]	3.46
Cn1nnnc1/C(=N\OCc1cccc(NC(=O)OCCC2CCCCC2)n1)c1ccccc1 [Example 59]	5.11
Cc1nnnn1C(=NOCc1csc(NC(=O)OCCCC2CCCC2)n1)c1ccccc1 [Example 65]	4.77
Cc1nnnn1C(=NOCc1csc(NC(=O)OCC2CCCC2)n1)c1ccccc1 [Example 66]	3.99
Cc1nnnn1C(=NOCc1csc(NC(=O)OCCCC2CCCCC2)n1)c1ccccc1 [Example 67]	5.11
Cc1nnnn1C(=NOCc1csc(NC(=O)OCCCC2CC2)n1)c1ccccc1 [Example 68]	3.9
Cn1nnnc1C(=NOCc1cccc(NC(=O)OCCCC2CCCC2)n1)c1ccccc1 [Example 69]	5.06
Cn1nnnc1C(=NOCc1cccc(NC(=O)OCC2CCCC2)n1)c1ccccc1 [Example 70]	4.25
Cn1nnnc1C(=NOCc1cccc(NC(=O)OCCCC2CCCCC2)n1)c1ccccc1 [Example 71]	5.45
Cn1nnnc1C(=NOCc1cccc(NC(=O)OCCCC2CC2)n1)c1ccccc1 [Example 72]	4.15
Cn1nnnc1C(=NOCc1csc(NC(=O)OCCCC2CCCC2)n1)c1ccccc1 [Example 73]	4.7
Cn1nnnc1C(=NOCc1csc(NC(=O)OCC2CCCC2)n1)c1ccccc1 [Example 74]	3.92
Cn1nnnc1C(=NOCc1csc(NC(=O)OCCCC2CCCCC2)n1)c1ccccc1 [Example 75]	5.03
Cn1nnnc1C(=NOCc1csc(NC(=O)OCCCC2CC2)n1)c1ccccc1 [Example 76]	3.85
CC(OC1CCCCCC1)C(=O)Nc1cccc(CON=C(c2ccccc2)c2nnnn2C)n1 (stereo not drawn) [Example 100]	4.8
Cc1nnnn1C(=NOCc1csc(NC(=O)COC2CC(C)CCC2C(C)C)n1)c1ccccc1 (stereo not drawn) [Example 106]	5.48
Cc1nnnn1C(=NOCc1cccc(NC(=O)COC2CC(C)CCC2C(C)C)n1)c1ccccc1 (stereo not drawn) [Example 108]	5.95
C=C(C)C(C)=CCC(C)OCC(=O)Nc1nc(CON=C(c2ccccc2)n2nnnc2C)cs1 (stereo not drawn) [compound 110]	4.56
C=CCCCOCC(=O)Nc1nc(CON=C(c2ccccc2)n2nnnc2C)cs1 [compound 111]	3.55
C=CCCCOCC(=O)Nc1cccc(CON=C(c2ccccc2)n2nnnc2C)n1 [compound 112]	3.83
C=C(C)C(C)=CCC(C)OCC(=O)Nc1cccc(CON=C(c2ccccc2)c2nnnn2C)n1 (stereo not drawn) [compound 113]	4.73
C#CCOC(C(=O)Nc1nc(CON=C(c2ccccc2)n2nnnc2C)cs1)C(C)C (stereo not drawn) [compound 114]	3.46

SMILES	log p
C#CCOC(CC)C(=O)Nc1nc(CON=C(c2ccccc2)n2nnnc2C)cs1 (stereo not drawn) [compound 115]	3.11
C#CCOC(CC)C(=O)Nc1nc(CON=C(c2ccccc2)c2nnnn2C)cs1 (stereo not drawn) [compound 116]	3.08
C#CCOC(C(=O)Nc1nc(CON=C(c2ccccc2)c2nnnn2C)cs1)C(C)C (stereo not drawn) [compound 117]	3.44
Cn1nnnc1C(=NOCc1csc(NC(=O)COCC#C[Si](C)(C)C)n1)c1ccccc1 [compound 118]	3.7
C#CCOC(CC)C(=O)Nc1cccc(CON=C(c2ccccc2)n2nnnc2C)n1 (stereo not drawn) [compound 119]	3.33
C#CCOC(C(=O)Nc1cccc(CON=C(c2ccccc2)n2nnnc2C)n1)C(C)C (stereo not drawn) [compound 120]	3.7
C#CCOC(CC)C(=O)Nc1cccc(CON=C(c2ccccc2)c2nnnn2C)n1 (stereo not drawn) [compound 121]	3.27
C#CCOC(C(=O)Nc1cccc(CON=C(c2ccccc2)c2nnnn2C)n1)C(C)C (stereo not drawn) [compound 122]	3.63
CCON=C(C(=O)Nc1nc(CON=C(c2ccccc2)n2nnnc2C)cs1)c1ccc(Cl)cc1 [compound 123]	4.61
CON=C(C(=O)Nc1nc(CON=C(c2ccccc2)n2nnnc2C)cs1)c1ccc(C)cc1 [compound 124]	4.13
CON=C(C(=O)Nc1nc(CON=C(c2ccccc2)n2nnnc2C)cs1)c1ccc(C)cc1 [compound 125]	3.85
CCON=C(C(=O)Nc1nc(CON=C(c2ccccc2)n2nnnc2C)cs1)c1ccc(C)cc1 [compound 126]	4.13
CCON=C(C(=O)Nc1nc(CON=C(c2ccccc2)n2nnnc2C)cs1)c1ccc(C)cc1 [compound 127]	4.49
CCON=C(C(=O)Nc1nc(CON=C(c2ccccc2)c2nnnn2C)cs1)c1ccc(Cl)cc1 [compound 128]	4.56
CON=C(C(=O)Nc1nc(CON=C(c2ccccc2)c2nnnn2C)cs1)c1ccc(C)cc1 [compound 129]	4.05
CON=C(C(=O)Nc1nc(CON=C(c2ccccc2)c2nnnn2C)cs1)c1ccc(C)cc1 [compound 130]	3.79
CON=C(C(=O)Nc1cccc(CON=C(c2ccccc2)n2nnnc2C)n1)c1ccccc1Cl [compound 131]	4.18
CON=C(C(=O)Nc1cccc(CON=C(c2ccccc2)n2nnnc2C)n1)c1ccc(Cl)cc1 [compound 132]	4.69
CCON=C(C(=O)Nc1cccc(CON=C(c2ccccc2)n2nnnc2C)n1)c1ccc(Cl)cc1 [compound 133]	4.93
CON=C(C(=O)Nc1cccc(CON=C(c2ccccc2)n2nnnc2C)n1)c1ccc(C)cc1 [compound 134]	4.44
CON=C(C(=O)Nc1cccc(CON=C(c2ccccc2)n2nnnc2C)n1)c1ccc(Cl)cc1 [compound 135]	4.51
CON=C(C(=O)Nc1cccc(CON=C(c2ccccc2)n2nnnc2C)n1)c1ccc(F)cc1 [compound 136]	4.11
CCON=C(C(=O)Nc1cccc(CON=C(c2ccccc2)c2nnnn2C)n1)c1ccc(Cl)cc1 [compound 137]	4.83
CON=C(C(=O)Nc1cccc(CON=C(c2ccccc2)c2nnnn2C)n1)c1ccc(C)cc1 [compound 138]	4.27
C=C=CCCC(=O)Nc1nc(CON=C(c2ccccc2)n2nnnc2C)cs1 [compound 139]	3.09
C=C=CCCCOC(=O)Nc1nc(CON=C(c2ccccc2)c2nnnn2C)cs1 [compound 140]	3.69
C=C=CCCC(=O)Nc1cccc(CON=C(c2ccccc2)n2nnnc2C)n1 [compound 141]	3.23

Same assay, conditions: reversed phase HPLC column; HPLC on reversed phase columns, pH 2.7, 0.1% formic acid in water / acetonitrile, linear gradient 10% to 95% acetonitrile; EEC directive 79/831 Annex V.A8; read-out: log p

SMILES	chromatographic logP
CC(CC1CC1)OC(=O)Nc1cccc(CO/N=C(/c2ccccc2)c2nnnn2C)n1 (stereo not drawn) [Example 60, 1-cyclopropylpropan-2-yl {6-[({[(Z)-(1-methyl-1H-tetrazol-5-yl)(phenyl)methylene]amino}oxy)methyl]pyridin-2-yl}carbamate]	4.15

Same assay, conditions: reversed phase HPLC columns, pH 2.7; HCOOH; read-out: logP(HCOOH)

SMILES	chromatographic logP
CC(CC1CC1)OC(=O)Nc1cccc(CO/N=C(/c2ccccc2)c2nnnn2C)n1 (stereo not drawn) [Example 60, 1-cyclopropylpropan-2-yl {6-[({[(Z)-(1-methyl-1H-tetrazol-5-yl)(phenyl)methylene]amino}oxy)methyl]pyridin-2-yl}carbamate]	4.15
